# Laboratory results from BindingDB's records for doi:10.1016/j.ejmech.2020.112529 (Jagiellonian University, 2020).
# Biological target: 5-HT2A receptor (Homo sapiens)
# Experiment: Displacement of [3H]-Ketanserin from human 5-HT2A receptor expressed in CHO-K1 cells incubated for 1 hr by microbeta counting method
row,Compound,Ki
1,CN1CCN(c2nc(N)nc(CCCOc3cccc(Cl)c3Cl)n2)CC1,649 nM
2,CCCCC(Oc1cc(Cl)ccc1Cl)c1nc(N)nc(N2CCN(C)CC2)n1 (configuration not stated),431 nM
3,CN1CCN(c2nc(N)nc(CCCOc3cc(Cl)ccc3Cl)n2)CC1,1460 nM
4,CC(Oc1cccc(Cl)c1Cl)c1nc(N)nc(N2CCN(C)CC2)n1 (configuration not stated),268 nM
5,CN1CCN(c2nc(N)nc(CCCOc3ccc(Cl)c(Cl)c3)n2)CC1,906 nM
6,CCCCC(Oc1cc(Cl)cc(Cl)c1)c1nc(N)nc(N2CCN(C)CC2)n1 (configuration not stated),839 nM
7,CC(Oc1ccccc1Cl)c1nc(N)nc(N2CCN(C)CC2)n1 (configuration not stated),1830 nM
